Results from ChEMBL document CHEMBL5291721, “A preclinical secondary pharmacology resource illuminates target-adverse drug reaction associations of marketed drugs” (Nat Commun, 2023).

How the values were obtained:
[1] = target: T1, Endothelin receptor type B (Homo sapiens, UniProt P24530)
T1 sequence (P24530 whole entry): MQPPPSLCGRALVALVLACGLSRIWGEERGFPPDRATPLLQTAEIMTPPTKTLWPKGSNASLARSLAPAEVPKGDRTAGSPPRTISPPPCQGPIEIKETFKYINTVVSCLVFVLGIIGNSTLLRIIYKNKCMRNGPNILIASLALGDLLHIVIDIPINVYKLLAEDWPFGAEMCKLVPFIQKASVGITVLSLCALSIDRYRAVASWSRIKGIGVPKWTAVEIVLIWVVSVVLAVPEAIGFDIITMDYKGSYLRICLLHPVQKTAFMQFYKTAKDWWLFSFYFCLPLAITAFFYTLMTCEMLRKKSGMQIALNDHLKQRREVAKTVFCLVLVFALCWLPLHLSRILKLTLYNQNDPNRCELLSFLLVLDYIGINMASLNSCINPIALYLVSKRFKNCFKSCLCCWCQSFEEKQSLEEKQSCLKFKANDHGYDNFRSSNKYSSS

[2] = target: T2, Alpha-2A adrenergic receptor (Homo sapiens, UniProt P08913)
T2 sequence (P08913 whole entry): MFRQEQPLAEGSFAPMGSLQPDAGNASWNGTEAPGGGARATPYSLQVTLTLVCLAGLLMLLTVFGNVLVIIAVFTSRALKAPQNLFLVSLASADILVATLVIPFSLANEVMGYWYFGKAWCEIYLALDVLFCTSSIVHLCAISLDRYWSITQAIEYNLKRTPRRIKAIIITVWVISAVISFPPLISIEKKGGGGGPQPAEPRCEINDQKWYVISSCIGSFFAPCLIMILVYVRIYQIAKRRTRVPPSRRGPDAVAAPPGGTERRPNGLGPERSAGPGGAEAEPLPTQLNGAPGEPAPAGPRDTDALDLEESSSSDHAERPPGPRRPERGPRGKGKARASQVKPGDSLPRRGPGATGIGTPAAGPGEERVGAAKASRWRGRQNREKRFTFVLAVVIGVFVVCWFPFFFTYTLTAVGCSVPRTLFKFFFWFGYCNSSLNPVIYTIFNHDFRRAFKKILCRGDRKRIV

[3] = target: Beta-3 adrenergic receptor (Homo sapiens, UniProt P13945)
[4] = target: T3, Muscarinic acetylcholine receptor M2 (Homo sapiens, UniProt P08172)
T3 sequence (P08172 whole entry): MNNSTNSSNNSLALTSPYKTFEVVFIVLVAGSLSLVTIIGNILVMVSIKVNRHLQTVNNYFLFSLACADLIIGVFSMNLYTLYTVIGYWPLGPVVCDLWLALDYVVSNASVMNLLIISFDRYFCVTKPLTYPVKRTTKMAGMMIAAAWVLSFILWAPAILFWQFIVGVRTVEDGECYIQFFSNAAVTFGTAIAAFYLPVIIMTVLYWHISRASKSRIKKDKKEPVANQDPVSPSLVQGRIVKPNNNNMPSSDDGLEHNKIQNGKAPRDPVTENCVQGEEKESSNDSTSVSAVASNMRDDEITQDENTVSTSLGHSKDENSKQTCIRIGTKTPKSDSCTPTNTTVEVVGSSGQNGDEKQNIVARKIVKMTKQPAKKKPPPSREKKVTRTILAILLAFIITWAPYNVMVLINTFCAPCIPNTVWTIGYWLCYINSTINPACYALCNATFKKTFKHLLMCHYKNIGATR

Progesterone receptor = target: T4, Progesterone receptor (Homo sapiens, UniProt P06401); assay type: functional
T4 sequence (P06401 whole entry): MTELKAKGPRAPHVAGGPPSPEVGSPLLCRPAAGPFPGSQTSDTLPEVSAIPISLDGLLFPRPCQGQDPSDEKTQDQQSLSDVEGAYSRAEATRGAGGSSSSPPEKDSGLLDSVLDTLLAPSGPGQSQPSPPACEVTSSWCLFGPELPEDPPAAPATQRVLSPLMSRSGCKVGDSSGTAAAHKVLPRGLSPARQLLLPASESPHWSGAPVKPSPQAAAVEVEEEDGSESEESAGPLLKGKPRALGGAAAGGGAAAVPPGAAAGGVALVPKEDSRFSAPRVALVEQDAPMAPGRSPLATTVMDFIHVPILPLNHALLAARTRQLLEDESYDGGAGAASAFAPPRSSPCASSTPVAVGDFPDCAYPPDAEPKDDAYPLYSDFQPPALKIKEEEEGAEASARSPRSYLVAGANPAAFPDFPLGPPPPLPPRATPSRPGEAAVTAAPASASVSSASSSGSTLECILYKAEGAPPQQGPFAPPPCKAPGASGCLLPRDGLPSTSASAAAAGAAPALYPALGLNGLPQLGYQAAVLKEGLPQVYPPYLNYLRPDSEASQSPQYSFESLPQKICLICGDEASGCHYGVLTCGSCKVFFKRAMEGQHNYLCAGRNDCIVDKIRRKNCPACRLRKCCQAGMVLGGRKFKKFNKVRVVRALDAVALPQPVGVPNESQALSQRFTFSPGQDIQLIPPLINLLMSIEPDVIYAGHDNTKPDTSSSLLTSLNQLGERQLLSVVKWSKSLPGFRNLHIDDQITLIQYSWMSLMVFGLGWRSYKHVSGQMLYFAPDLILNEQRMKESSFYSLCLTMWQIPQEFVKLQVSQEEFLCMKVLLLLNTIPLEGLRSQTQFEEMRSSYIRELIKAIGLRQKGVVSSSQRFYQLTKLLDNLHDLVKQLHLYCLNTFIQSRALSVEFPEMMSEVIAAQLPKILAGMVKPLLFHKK

[5] = target: T5, Corticotropin-releasing factor receptor 2 (Homo sapiens, UniProt Q13324)
T5 sequence (Q13324 whole entry): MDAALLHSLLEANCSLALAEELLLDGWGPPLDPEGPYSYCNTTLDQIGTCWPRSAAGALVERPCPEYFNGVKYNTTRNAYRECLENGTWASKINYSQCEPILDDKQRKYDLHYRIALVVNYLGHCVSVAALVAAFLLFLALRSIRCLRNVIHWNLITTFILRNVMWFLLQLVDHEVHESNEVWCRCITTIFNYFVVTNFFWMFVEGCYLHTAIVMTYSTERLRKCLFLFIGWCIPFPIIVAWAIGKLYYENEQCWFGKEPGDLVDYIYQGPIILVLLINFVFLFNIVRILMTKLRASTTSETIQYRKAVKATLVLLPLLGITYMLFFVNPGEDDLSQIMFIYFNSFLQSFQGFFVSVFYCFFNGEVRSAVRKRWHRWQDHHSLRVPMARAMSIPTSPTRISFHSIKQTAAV

Mu-type opioid receptor = Mu-type opioid receptor (Homo sapiens, UniProt P35372); experiment: biochemical; assay type: functional
Histamine H1 receptor = Histamine H1 receptor (Homo sapiens, UniProt P35367)
[6] = target: Muscarinic acetylcholine receptor M3 (Homo sapiens, UniProt P20309)
Also: assay procedure not described here.

Chain of Mu-type opioid receptor (P35372 whole entry): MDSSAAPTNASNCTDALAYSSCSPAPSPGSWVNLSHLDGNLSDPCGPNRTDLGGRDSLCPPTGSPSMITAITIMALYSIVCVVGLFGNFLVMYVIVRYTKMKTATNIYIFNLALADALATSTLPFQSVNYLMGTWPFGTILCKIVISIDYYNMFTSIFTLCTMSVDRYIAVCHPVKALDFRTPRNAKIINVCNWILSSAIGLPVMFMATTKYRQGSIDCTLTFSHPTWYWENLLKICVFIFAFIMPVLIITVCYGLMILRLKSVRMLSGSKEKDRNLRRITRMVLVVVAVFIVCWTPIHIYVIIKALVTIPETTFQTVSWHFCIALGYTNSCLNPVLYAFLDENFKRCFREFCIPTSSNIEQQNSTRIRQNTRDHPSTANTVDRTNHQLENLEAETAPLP
Chain of Beta-3 adrenergic receptor (P13945 whole entry): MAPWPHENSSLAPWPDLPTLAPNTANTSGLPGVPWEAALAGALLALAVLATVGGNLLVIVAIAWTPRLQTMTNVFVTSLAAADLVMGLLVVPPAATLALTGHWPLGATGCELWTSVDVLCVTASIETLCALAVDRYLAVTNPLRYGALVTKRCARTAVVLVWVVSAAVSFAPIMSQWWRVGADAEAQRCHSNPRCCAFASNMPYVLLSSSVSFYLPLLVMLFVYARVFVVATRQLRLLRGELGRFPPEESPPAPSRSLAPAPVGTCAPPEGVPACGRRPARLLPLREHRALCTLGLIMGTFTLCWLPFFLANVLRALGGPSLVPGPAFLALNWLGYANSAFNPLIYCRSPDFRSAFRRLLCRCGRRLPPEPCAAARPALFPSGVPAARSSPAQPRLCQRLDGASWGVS
Chain of Histamine H1 receptor (P35367 whole entry): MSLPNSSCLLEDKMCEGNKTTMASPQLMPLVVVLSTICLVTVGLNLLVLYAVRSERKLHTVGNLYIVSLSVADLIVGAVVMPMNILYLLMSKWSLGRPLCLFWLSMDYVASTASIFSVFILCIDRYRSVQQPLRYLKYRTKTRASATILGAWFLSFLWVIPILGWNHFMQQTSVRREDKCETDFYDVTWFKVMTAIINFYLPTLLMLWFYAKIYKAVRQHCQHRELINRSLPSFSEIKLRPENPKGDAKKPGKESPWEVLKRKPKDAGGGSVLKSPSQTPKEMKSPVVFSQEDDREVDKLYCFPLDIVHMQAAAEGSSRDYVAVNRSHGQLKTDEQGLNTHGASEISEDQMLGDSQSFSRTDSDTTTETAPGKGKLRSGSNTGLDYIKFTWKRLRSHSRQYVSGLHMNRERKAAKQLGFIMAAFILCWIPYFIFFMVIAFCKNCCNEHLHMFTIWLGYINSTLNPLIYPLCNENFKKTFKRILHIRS
Chain of Muscarinic acetylcholine receptor M3 (P20309 whole entry): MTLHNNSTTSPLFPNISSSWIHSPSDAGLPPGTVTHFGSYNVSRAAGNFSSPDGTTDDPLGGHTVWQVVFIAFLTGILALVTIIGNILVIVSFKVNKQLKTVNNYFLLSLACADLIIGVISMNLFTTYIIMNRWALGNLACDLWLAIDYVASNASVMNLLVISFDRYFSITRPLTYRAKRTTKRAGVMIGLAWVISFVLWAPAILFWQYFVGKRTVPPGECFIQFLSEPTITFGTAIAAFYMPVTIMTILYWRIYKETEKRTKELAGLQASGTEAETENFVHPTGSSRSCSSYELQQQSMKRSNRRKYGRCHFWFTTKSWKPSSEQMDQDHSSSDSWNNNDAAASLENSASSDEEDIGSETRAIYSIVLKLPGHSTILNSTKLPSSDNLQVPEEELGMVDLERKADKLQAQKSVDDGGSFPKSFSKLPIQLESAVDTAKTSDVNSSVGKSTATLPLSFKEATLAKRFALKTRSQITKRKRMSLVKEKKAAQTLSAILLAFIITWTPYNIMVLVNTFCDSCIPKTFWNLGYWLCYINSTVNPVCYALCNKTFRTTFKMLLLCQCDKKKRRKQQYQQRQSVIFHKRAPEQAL

Structure (SMILES)	AC50 [1] [µM]	AC50 [2] [µM]	AC50 [3] [µM]	AC50 [4] [µM]	AC50 (Progesterone receptor) [µM]	AC50 [5] [µM]	AC50 (Mu-type opioid receptor) [µM]	AC50 (Histamine H1 receptor) [µM]	AC50 [6] [µM]
Cc1onc(-c2ccccc2)c1-c1ccc(S(N)(=O)=O)cc1 [VALDECOXIB]	> 30	> 10	> 30	> 10	> 30	> 30	–	–	–
COc1cc2nc(N3CCN(C(=O)C4CCCO4)CC3)nc(N)c2cc1OC (centres undefined) [TERAZOSIN]	> 30	7.27	> 30	> 10	–	> 30	> 30	–	–
Nc1ccc(S(=O)(=O)Nc2nccs2)cc1 [SULFATHIAZOLE]	> 30	> 10	> 30	> 10	–	> 30	–	–	–
CCCC(CCC)C(=O)O [VALPROIC ACID]	> 30	> 10	> 30	> 10	–	> 30	–	–	–
C[C@H]1c2cccc(O)c2C(=O)C2=C(O)[C@]3(O)C(=O)C(C(N)=O)=C(O)[C@@H](N(C)C)[C@@H]3[C@@H](O)[C@@H]21 [DOXYCYCLINE]	> 30	> 10	> 30	> 10	–	> 30	–	–	–
CO[C@H]1/C=C/O[C@@]2(C)Oc3c(C)c(O)c4c(O)c(c(/C=N/N5CCN(C)CC5)c(O)c4c3C2=O)NC(=O)/C(C)=C\C=C\[C@H](C)[C@H](O)[C@@H](C)[C@@H](O)[C@@H](C)[C@H](OC(C)=O)[C@@H]1C [RIFAMPIN]	> 30	> 10	32.6	–	–	> 30	> 30	–	–
C=CC[C@@H]1/C=C(\C)C[C@H](C)C[C@H](OC)[C@H]2O[C@@](O)(C(=O)C(=O)N3CCCC[C@H]3C(=O)O[C@H](/C(C)=C/[C@@H]3CC[C@@H](O)[C@H](OC)C3)[C@H](C)[C@@H](O)CC1=O)[C@H](C)C[C@@H]2OC [TACROLIMUS ANHYDROUS]	> 30	> 10	12.2	> 10	> 30	> 30	> 30	–	–
COc1ccccc1Oc1c(NS(=O)(=O)c2ccc(C(C)(C)C)cc2)nc(-c2ncccn2)nc1OCCO [BOSENTAN]	–	> 10	> 30	> 10	> 30	> 30	–	> 10	> 30
CN(C)CCc1c[nH]c2ccc(Cn3cncn3)cc12 [RIZATRIPTAN]	> 30	> 10	> 30	> 10	–	> 30	> 30	5.79	> 30
CC(C)Cc1ccc(C(C)C(=O)O)cc1 (centres undefined) [IBUPROFEN]	> 30	> 10	7.12	> 10	–	> 30	–	–	–
